One test concerns the target T1, Full length Akt1 (Homo sapiens, UniProt P31749).
T1 construct: Full length Akt1 (cat #P2999); purchased PerkinElmer P2999
Description: In vitro Akt kinase enzymatic assay (HTRF), Akt1. In kind it is biochemical. Particulars: 0.4 nM Akt1, substrate solution with 5 mM ATP, 25° C. 1 hr. In short, it runs like this:
(§1)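 Full-length enzyme (0.4 nM Akt1 or 0.6 nM Akt2/Akt3 in the enzyme solution) was combined with a substrate solution of 0.1 μM ULight-Crosstide plus 5 mM ATP in pH 7.8 HEPES/MgCl2/DTT/Tween20 buffer and reacted 1 hr at 25° C. The EDTA stop contained Eu anti-phospho-Crosstide; IC50 was fitted from 11-point HTRF inhibition curves.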

In another test the target is T2, Full length Akt2 (Homo sapiens, UniProt P31751).
T2 construct: Full length Akt1 (cat #P2999), Akt2 (cat #PV3184); purchased PerkinElmer PV3184
T2 sequence (P31751 whole entry): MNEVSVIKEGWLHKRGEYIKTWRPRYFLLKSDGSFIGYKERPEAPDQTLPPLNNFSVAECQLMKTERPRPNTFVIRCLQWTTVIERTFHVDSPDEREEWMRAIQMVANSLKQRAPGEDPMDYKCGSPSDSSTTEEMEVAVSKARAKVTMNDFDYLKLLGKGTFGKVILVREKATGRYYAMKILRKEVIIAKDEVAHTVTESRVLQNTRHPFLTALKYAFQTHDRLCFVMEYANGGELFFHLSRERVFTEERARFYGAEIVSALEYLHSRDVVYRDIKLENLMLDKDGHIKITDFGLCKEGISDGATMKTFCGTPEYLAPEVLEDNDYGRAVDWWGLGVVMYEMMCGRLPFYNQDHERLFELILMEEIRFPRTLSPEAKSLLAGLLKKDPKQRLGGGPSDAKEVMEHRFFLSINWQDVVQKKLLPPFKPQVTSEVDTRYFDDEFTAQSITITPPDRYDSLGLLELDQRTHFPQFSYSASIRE
The experiment in a line: In vitro Akt kinase enzymatic assay (HTRF), Akt2. The conditions noted are these: 0.6 nM Akt2, substrate solution with 5 mM ATP, 25° C. 1 hr. In kind it is biochemical. In short, it runs like this: as §1

In the next test the target is T3, Full length Akt3 (Homo sapiens, UniProt Q9Y243).
T3 construct: Full length Akt1 (cat #P2999), Akt2 (cat #PV3184), Akt3 (cat #PV3185); purchased PerkinElmer PV3185
T3 sequence (Q9Y243 whole entry): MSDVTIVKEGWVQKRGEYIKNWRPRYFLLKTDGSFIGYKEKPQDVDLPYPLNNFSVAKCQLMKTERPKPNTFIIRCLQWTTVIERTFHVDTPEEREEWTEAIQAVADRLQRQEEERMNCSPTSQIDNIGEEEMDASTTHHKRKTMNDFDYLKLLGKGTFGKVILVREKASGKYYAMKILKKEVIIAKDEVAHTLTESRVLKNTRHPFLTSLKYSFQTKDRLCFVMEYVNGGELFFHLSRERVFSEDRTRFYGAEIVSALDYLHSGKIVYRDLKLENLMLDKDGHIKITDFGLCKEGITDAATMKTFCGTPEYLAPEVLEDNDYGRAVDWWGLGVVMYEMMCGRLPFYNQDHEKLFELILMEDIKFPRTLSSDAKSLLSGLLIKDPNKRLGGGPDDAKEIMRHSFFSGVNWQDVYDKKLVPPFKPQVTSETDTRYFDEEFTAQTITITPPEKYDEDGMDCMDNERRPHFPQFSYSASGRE
Description: In vitro Akt kinase enzymatic assay (HTRF), Akt3. In kind it is biochemical. Particulars: 0.6 nM Akt3, substrate solution with 5 mM ATP, 25° C. 1 hr. In a few lines: as §1
On the technique in general: Time-resolved FRET reads energy transfer from a long-lived donor to a nearby acceptor.

For another test, the target named is T4, Full length PKA (Homo sapiens, UniProt P17612).
T4 construct: Full length PKA (cat #P2912); purchased Invitrogen P2912
The experiment in a line: PKA in vitro enzymatic assay (HTRF). In kind it is biochemical. The conditions noted are these: 0.035 nM enzyme solution, substrate solution with 5 mM ATP, 25° C. 1 hr. In short, it runs like this: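 IC50 came from curve fitting of percent inhibition across an 11-point, 3-fold compound series, with HTRF read after EDTA quench and Tb-labelled p-S133 antibody detection. Enzyme (0.035 nM solution) and substrate (0.1 μM fluorescein-CREBtide solution containing 5 mM ATP) reacted for 1 h at 25°C. The buffer was HEPES 50 mM pH 7.8 with 10 mM MgCl2, 5 mM DTT and 0.005% Tween20.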

Test [1] deals with LNCaP cells (human prostate tumor cell line). Description: Akt LNCaP proliferation assay (MTS). In kind it is cell-based. Particulars: 2% fetal bovine serum, 48 hours, class symbols. The protocol:
LNCaP cells (human prostate tumor cell line) were plated in 96 well plates (COSTAR, Corning, N.Y.) in 50 μL at 10,000 cells/well in RPMI (Media Tech, Manassas, Va.), 2% fetal bovine serum (Hyclone/Thermo, Logan, Utah) and incubated overnight at 37° C., 5% CO2. […] of compound solution were added at final concentrations of 1000 nM to 0.5 nM in 3 fold dilutions for IC50 determination and plates further incubated for 48 hours. 100 μL of Cell Titer 96® Aqueous reagent, from an MTS colorimetric method for determining the number of viable cells in proliferation (Cell titer 96, Promega, Madison, Wis.) was added for 2 hours at 37° C., 5% CO2. Each plate was mixed well and read on a SpectroMax M5 automated plate reader (Molecular Devices, Sunnyvale Calif.). The ability of the compound to inhibit proliferation was reported as the inhibitor concentration required for 50% inhibition (IC50 values) of total cell proliferation. See Table 8 for data related to compounds of the examples.

T1 sequence (P31749 whole entry): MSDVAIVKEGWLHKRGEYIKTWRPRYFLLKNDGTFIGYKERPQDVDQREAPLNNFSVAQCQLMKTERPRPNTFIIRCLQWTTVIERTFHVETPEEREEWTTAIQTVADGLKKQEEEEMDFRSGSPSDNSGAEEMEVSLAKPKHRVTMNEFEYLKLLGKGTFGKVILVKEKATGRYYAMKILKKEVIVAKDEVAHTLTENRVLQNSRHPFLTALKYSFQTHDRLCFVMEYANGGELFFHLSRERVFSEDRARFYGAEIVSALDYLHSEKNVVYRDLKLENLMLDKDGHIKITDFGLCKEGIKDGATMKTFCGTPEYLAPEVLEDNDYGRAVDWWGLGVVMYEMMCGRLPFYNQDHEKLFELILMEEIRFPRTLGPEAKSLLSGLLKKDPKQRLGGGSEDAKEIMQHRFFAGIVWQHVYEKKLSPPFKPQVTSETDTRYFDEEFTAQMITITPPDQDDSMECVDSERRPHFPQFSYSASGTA

In the case of `CSCc1cnn(C)c1-c1ccc2c(c1)CN([C@H](CN)Cc1cc(F)cc(F)c1)C2=O` [Example 49, 2-[(1S)-2-amino-1-(3,5-difluorobenzyl)ethyl]-5-[4-(methylthio)methyl-1-methyl-1H-pyrazol-5-yl]isoindolin-1-one], the IC50 – broadly, the concentration at which inhibition is half-maximal – was below 500 nM against Full length Akt1; 500 to 5000 nM on Full length Akt2; below 500 nM against Full length Akt3; above 5000 nM against Full length PKA; 500 to 5000 nM in test [1].
For the molecule `Cn1nccc1-c1ccc2c(c1)CN([C@H](CN)CC1CCCCC1)C2=O` [Example 131, 2-[(1S)-2-amino-1-(cyclohexylmethyl)ethyl]-5-(1-methyl-1H-pyrazol-5-yl)isoindolin-1-one], the IC50 was below 500 nM against Full length Akt1; below 500 nM on Full length Akt2; below 500 nM on Full length Akt3; 500 to 5000 nM against Full length PKA; below 500 nM in test [1].
Take `Cn1ncc(C#CC(C)(C)O)c1-c1ccc2c(c1)CN([C@H](CN)Cc1cc(F)cc(F)c1)C2=O` [Example 54, 2-[(1S)-2-amino-1-(3,5-difluorobenzyl)ethyl]-5-[4-(3-hydroxy-3-methylbut-1-yn-1-yl)-1-methyl-1H-pyrazol-5-yl]isoindolin-1-one]: the IC50 is below 500 nM on Full length Akt1; below 500 nM against Full length Akt2; below 500 nM at Full length Akt3; above 5000 nM against Full length PKA; below 500 nM in test [1].
On to `Cc1cnn(C)c1-c1ccc2c(c1)CN([C@H](CN)Cc1cccc(F)c1)C2=O` [Example 3, 2-[(1S)-2-amino-1-(3-fluorobenzyl)ethyl]-5-(4-methyl-1-methyl-1H-pyrazol-5-yl)isoindolin-1-one], for which the IC50 is below 500 nM against Full length Akt1; below 500 nM against Full length Akt2; below 500 nM on Full length Akt3; 500 to 5000 nM at Full length PKA; below 500 nM in test [1].
As to `Cn1ncc(Cl)c1-c1ccc2c(c1)CN([C@H](CN)Cc1ccccn1)C2=O` [Example 66, 2-[(1S)-2-amino-1-(pyridin-2-ylmethyl)ethyl]-5-(4-chloro-1-methyl-1H-pyrazol-5-yl)isoindolin-1-one], the IC50 on Full length Akt1 was below 500 nM; against Full length Akt2, below 500 nM; at Full length Akt3 it was below 500 nM; against Full length PKA, 500 to 5000 nM; in test [1], below 500 nM.
With `Cn1nccc1-c1ccc2c(c1)CN([C@H](CN)Cc1csc3ccccc13)C2=O` [Example 76, 2-[(1S)-2-amino-1-(1-benzothien-3-ylmethyl)ethyl]-5-(1-methyl-1H-pyrazol-5-yl)isoindolin-1-one], the half-inhibitory concentration (IC50) was below 500 nM against Full length Akt1; below 500 nM against Full length Akt2; below 500 nM at Full length Akt3; above 5000 nM against Full length PKA; below 500 nM in test [1].
With `Cn1ncc(Cl)c1-c1cc2c(cn1)C(=O)N([C@H](CN)Cc1cc(F)cc(F)c1)C2` [Example 101, 2-[(1S)-2-amino-1-(3,5-difluorobenzyl)ethyl]-6-(4-chloro-1-methyl-1H-pyrazol-5-yl)-1,2-dihydro-3H-pyrrolo[3,4-c]pyridin-3-one], the IC50 against Full length Akt1 is below 500 nM; against Full length Akt2, below 500 nM; against Full length Akt3, below 500 nM; on Full length PKA, 500 to 5000 nM; in test [1], below 500 nM.
`Cn1nccc1-c1ccc2c(c1)CN([C@H](CN)Cc1cccs1)C2=O` [Example 80, 2-[(1S)-2-amino-1-(2-thienylmethyl)ethyl]-5-(1-methyl-1H-pyrazol-5-yl)isoindolin-1-one]: the IC50 at Full length Akt1 is below 500 nM; at Full length Akt2, below 500 nM; on Full length Akt3 it was below 500 nM; against Full length PKA, 500 to 5000 nM; in test [1], below 500 nM.
For the molecule `Cn1ncc(Cl)c1-c1ccc2c(c1)CN([C@H](CN)Cc1cccc(C#N)c1)C2=O` [Example 62, 3-{(2S)-3-amino-2-[5-(4-chloro-1-methyl-1H-pyrazol-5-yl)-1-oxo-1,3-dihydro-2H-isoindol-2-yl]propyl}benzonitrile], the half-inhibitory concentration (IC50) was below 500 nM at Full length Akt1; below 500 nM on Full length Akt2; below 500 nM against Full length Akt3; above 5000 nM on Full length PKA; below 500 nM in test [1].
As to `Cn1nccc1-c1ccc2c(c1)CN([C@H](CN)Cc1ccccc1)C2=O` [Example 55, 2-[(1S)-2-amino-1-benzyl-ethyl]-5-(1-methyl-1H-pyrazol-5-yl)isoindolin-1-one], the IC50 at Full length Akt1 is below 500 nM; on Full length Akt2 it was below 500 nM; on Full length Akt3 it was below 500 nM; against Full length PKA, above 5000 nM; in test [1] it was below 500 nM.
Take `CCCOCc1cnn(C)c1-c1ccc2c(c1)CN([C@H](CN)Cc1cccc(F)c1)C2=O` [Example 7, 2-[(1S)-2-amino-1-(3-fluorobenzyl)ethyl]-5-[4-(1-propoxymethyl)-1-methyl-1H-pyrazol-5-yl]isoindolin-1-one]: the IC50 was below 500 nM against Full length Akt1; below 500 nM against Full length Akt2; below 500 nM against Full length Akt3; above 5000 nM against Full length PKA; below 500 nM in test [1].
Consider `Cn1ncc(Cl)c1-c1ccc2c(c1)CN([C@H](CN)Cc1ccccc1)C2=O` [Example 56, 2-[(1S)-2-amino-1-benzyl-ethyl]-5-(4-chloro-1-methyl-1H-pyrazol-5-yl)isoindolin-1-one], for which the IC50 against Full length Akt1 is below 500 nM; against Full length Akt2, below 500 nM; on Full length Akt3, below 500 nM; on Full length PKA it was 500 to 5000 nM; in test [1], below 500 nM.
For the molecule `Cn1ncc(Br)c1-c1cnc2c(c1)CN([C@H](CN)Cc1cccc(F)c1)C2=O` [Example 91, 6-[(1S)-2-amino-1-(3-fluorobenzyl)ethyl]-3-(4-bromo-1-methyl-1H-pyrazol-5-yl)-5,6-dihydro-7H-pyrrolo[3,4-b]pyridin-7-one], the IC50 was below 500 nM against Full length Akt1; below 500 nM on Full length Akt2; below 500 nM at Full length Akt3; above 5000 nM against Full length PKA; below 500 nM in test [1].
`CC(C)OCc1cnn(C)c1-c1ccc2c(c1)CN([C@H](CN)Cc1ccccc1)C2=O` [Example 58, 2-[(1S)-2-amino-1-benzyl-ethyl]-5-[4-(2-propoxymethyl)-1-methyl-1H-pyrazol-5-yl]isoindolin-1-one]: the half-inhibitory concentration (IC50) is below 500 nM against Full length Akt1; below 500 nM against Full length Akt2; below 500 nM against Full length Akt3; above 5000 nM against Full length PKA; below 500 nM in test [1].
For the molecule `Cc1cnn(C)c1-c1cc2c(cn1)C(=O)N([C@H](CN)Cc1cc(F)cc(F)c1)C2` [Example 103, 2-[(1S)-2-amino-1-(3,5-difluoro-benzyl)ethyl]-6-(4-methyl-1-methyl-1H-pyrazol-5-yl)-1,2-dihydro-3H-pyrrolo[3,4-c]pyridin-3-one], the IC50 against Full length Akt1 was below 500 nM; against Full length Akt2, below 500 nM; against Full length Akt3, below 500 nM; against Full length PKA, 500 to 5000 nM; in test [1] it was below 500 nM.
`Cn1ncc(Cl)c1-c1ccc2c(c1)CN([C@H](CNC1CCOCC1)Cc1cccc(F)c1)C2=O` [Example 36, 5-(4-chloro-1-methyl-1H-pyrazol-5-yl)-2-[(1S)-1-(3-fluorobenzyl)-2-(tetrahydro-2H-pyran-4-ylamino)ethyl]isoindolin-1-one]: the IC50 against Full length Akt1 was 500 to 5000 nM; on Full length Akt2, 500 to 5000 nM; at Full length Akt3, above 5000 nM; on Full length PKA, above 5000 nM.
`Cn1ncc(-c2cncc(F)c2)c1-c1ccc2c(c1)CN([C@H](CN)Cc1cccc(F)c1)C2=O` [Example 26, 2-[(1S)-2-amino-1-(3-fluorobenzyl)ethyl]-5-[4-(5-fluoropyridin-3-yl)-1-methyl-1H-pyrazol-5-yl]isoindolin-1-one]: the IC50 at Full length Akt1, on Full length Akt2, on Full length Akt3 and against Full length PKA was above 5000 nM throughout.
Take `COc1ccc(C(CN)N2Cc3cc(-c4c(Cl)cnn4C)ccc3C2=O)cc1` (stereo not drawn) [Example 126, 2-[2-amino-1-(4-methoxyphenyl)ethyl]-5-(4-chloro-1-methyl-1H-pyrazol-5-yl)isoindolin-1-one]: the IC50 at Full length Akt1, against Full length Akt2, on Full length Akt3 and against Full length PKA was above 5000 nM throughout.
